{
  "source": "patent US9745349B2",
  "about": "“Cyclic peptide and pharmaceutical product containing same” (JAPAN SCIENCE AND TECHNOLOGY AGENCY, priority 2012, dated 2017)",
  "data": [
    {"biological_target": "O-acyl isopeptide of Aβ (Homo sapiens, UniProt P05067)", "sequence (P05067 672-713 limits assumed)": "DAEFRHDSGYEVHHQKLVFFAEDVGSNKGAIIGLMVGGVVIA", "test": "Aβ aggregation inhibition test (thioflavin T fluorescence)", "format": "biochemical", "details": "inhibitor 30 μM, Aβ O-acyl isopeptide 10 μM, 0.1 M phosphate buffer pH 7.4, 1% DMSO, 37° C.; DMSO control taken as 100", "procedure": "An aggregation inhibitory peptide solution (DMSO solution) was added to a 0.1 M phosphate buffer (pH 7.4, 50 μL) containing O-acyl isopeptide of Aβ (10 μM) (final concentration of inhibitor: 30 μM, 1% DMSO), and the resultant mixture was incubated at 37° C. for a specific period of time. Thereafter, a portion of the reaction mixture (10 μL) was added to a mixture of thioflavin T solution (50 μM thioflavin T, 10 μL) and 50 mM glycine-NaOH buffer (pH 8.5, 396 μL). Immediately thereafter, they were mixed together, and the fluorescence intensity of thioflavin T was measured at an excitation wavelength of 440 nm and an emission wavelength of 480 nm.", "values": [
      {"substance": "cyclo-D-[Ala-Leu-Val-Phe-Phe] (ALVFF; HELM PEPTIDE1{[dA].[dL].[dV].[dF].[dF]}$PEPTIDE1,PEPTIDE1,1:R1-5:R2$$$V2.0; SMILES CC(C)C[C@H]1NC(=O)[C@@H](C)NC(=O)[C@@H](Cc2ccccc2)NC(=O)[C@@H](Cc2ccccc2)NC(=O)[C@@H](C(C)C)NC1=O) [Compound 3]", "Aggregation inhibitory activity ratio (the lower the ratio, the higher the inhibitory activity)": 66},
      {"substance": "cyclo-D-[Lys-Ala-Val-Phe-Phe] [Compound 4]", "Aggregation inhibitory activity ratio (the lower the ratio, the higher the inhibitory activity)": 88},
      {"substance": "cyclo-D-[Lys-Leu-Ala-Phe-Phe] [Compound 5]", "Aggregation inhibitory activity ratio (the lower the ratio, the higher the inhibitory activity)": 82},
      {"substance": "cyclo-D-[Lys-Leu-Val-(4-(2-Py)-Ph)Ala-Phe] [Compound 13]", "Aggregation inhibitory activity ratio (the lower the ratio, the higher the inhibitory activity)": 81},
      {"substance": "cyclo-D-[Lys-Leu-Val-(4-(3-Py)-Ph)Ala-Phe] [Compound 14]", "Aggregation inhibitory activity ratio (the lower the ratio, the higher the inhibitory activity)": 49},
      {"substance": "cyclo-D-[Lys-Leu-Val-(4-(3-phenol)-Ph)Ala-Phe] [Compound 17]", "Aggregation inhibitory activity ratio (the lower the ratio, the higher the inhibitory activity)": 39},
      {"substance": "cyclo-D-[Lys-Leu-Val-(4-(4-Py)-Ph)Ala-Phe] [Compound 15]", "Aggregation inhibitory activity ratio (the lower the ratio, the higher the inhibitory activity)": 57},
      {"substance": "cyclo-D-[Lys-Leu-Val-(4-(5-pyrimidine)-Ph)Ala-Phe] [Compound 16]", "Aggregation inhibitory activity ratio (the lower the ratio, the higher the inhibitory activity)": 90},
      {"substance": "cyclo-D-[Lys-Leu-Val-Ala-Phe] [Compound 6]", "Aggregation inhibitory activity ratio (the lower the ratio, the higher the inhibitory activity)": 106},
      {"substance": "cyclo-D-[Lys-Leu-Val-Phe(βPh)-Phe] [Compound 8]", "Aggregation inhibitory activity ratio (the lower the ratio, the higher the inhibitory activity)": 28},
      {"substance": "cyclo-D-[Lys-Leu-Val-Phe-Ala] [Compound 7]", "Aggregation inhibitory activity ratio (the lower the ratio, the higher the inhibitory activity)": 104}
    ]}
  ]
}
